Measured values from US20060263802A1 (priority 2003, published 2006).

Tests used:
Type in all cases: binding
[1] = tested on: human monoclonal antibody CRJA
[2] = tested on: human monoclonal antibody CRJA; remark: listed apart in the source
[3] = tested on: human monoclonal antibody CR57
[4] = tested on: human monoclonal antibody CR57; remark: listed apart in the source
[5] = tested on: human monoclonal antibody CRJB
[6] = tested on: human monoclonal antibody CRJB; remark: listed apart in the source

Sequence | Binding of CRJA (10 μg/ml) to looped/cyclic peptide (PEPSCAN-ELISA signal) [1] | Binding of CRJA to linear peptide (PEPSCAN-ELISA signal) [2] | Binding of CR57 to linear peptide (PEPSCAN-ELISA signal) [3] | Binding of CR57 (10 μg/ml) to looped/cyclic peptide (PEPSCAN-ELISA signal) [4] | Binding of CRJB to linear peptide (PEPSCAN-ELISA signal) [5] | Binding of CRJB (10 μg/ml) to looped/cyclic peptide (PEPSCAN-ELISA signal) [6] | Binding of CRJA (10 μg/ml) to looped/cyclic peptide (PEPSCAN-ELISA) [1] | Binding of CR57 (10 μg/ml) to looped/cyclic peptide (PEPSCAN-ELISA) [4] | Binding of CRJB (10 μg/ml) to looped/cyclic peptide (PEPSCAN-ELISA) [6] | Binding of CRJA to looped/cyclic peptide (PEPSCAN-ELISA signal) [1] | Binding of human monoclonal antibody CRJA to linear peptide (PEPSCAN-ELISA signal) [2] | Binding of human monoclonal antibody CR57 to linear peptide (PEPSCAN-ELISA signal) [3] | Binding of CR57 to looped/cyclic peptide (PEPSCAN-ELISA signal) [4] | Binding of human monoclonal antibody CRJB to linear peptide (PEPSCAN-ELISA signal) [5] | Binding of CRJB to looped/cyclic peptide (PEPSCAN-ELISA signal) [6] | binding of antibody CR57 to linear peptide (PEPSCAN OD) [3] | binding of antibody CR57 to looped/cyclic peptide (PEPSCAN OD) [4]
NGFTCTGVVTEAENY | 82 | 98 | 69 | 92 | 101 | 76 | – | – | – | – | – | – | – | – | – | – | –
VNLHDFRSDEIEHLV | – | 103 | 83 | – | 129 | – | 84 | 97 | 56 | – | – | – | – | – | – | – | –
LHSRVFPSGKCSGVA | 117 | 134 | 78 | 110 | 114 | 111 | – | – | – | – | – | – | – | – | – | – | –
GMSCDIFTNSRGKRA | 51 | 71 | 54 | 79 | 120 | 78 | – | – | – | – | – | – | – | – | – | – | –
PDVHNQVSGVDLGLP | – | – | – | – | – | – | – | – | – | 115 | 107 | 106 | 106 | 129 | 104 | – | –
GVFFNGIILGPDGNV | – | 84 | 58 | – | 116 | – | 68 | 57 | 85 | – | – | – | – | – | – | – | –
FKRKHFRPTPDACRA | 86 | 86 | 64 | 148 | 92 | 72 | – | – | – | – | – | – | – | – | – | – | –
ELKVGYILAIKMNGF | 93 | 84 | 87 | 84 | 132 | 83 | – | – | – | – | – | – | – | – | – | – | –
PDACRAAYNWKMAGD | 96 | 93 | 61 | 97 | 124 | 76 | – | – | – | – | – | – | – | – | – | – | –
KGACKLKLCGVLGLR | – | 50 | 181 | – | 111 | – | 50 | 78 | 60 | – | – | – | – | – | – | bound | –
SVIPLVHPLADPSTV | – | 64 | 72 | – | 137 | – | 75 | 71 | 106 | – | – | – | – | – | – | – | –
GYVTTTFKRKHFRPT | 101 | 87 | 70 | 200 | 123 | 138 | – | – | – | – | – | – | – | – | – | – | clearly bound
HLVVEELVRKREECL | – | 111 | 82 | – | 123 | – | 110 | 110 | 105 | – | – | – | – | – | – | – | –
NQVSGVDLGLPNWGK | – | – | – | – | – | – | – | – | – | 79 | 103 | 78 | 84 | 138 | 128 | – | –
GKRASKGSETCGFVD | – | 97 | 92 | – | 124 | – | 93 | 82 | 71 | – | – | – | – | – | – | – | –
SGFSYMELKVGYILA | 69 | 105 | 79 | 74 | 132 | 83 | – | – | – | – | – | – | – | – | – | – | –
DYTIWMPENPRLGMS | 86 | 106 | 93 | 83 | 127 | 66 | – | – | – | – | – | – | – | – | – | – | –
TVFKDGDEAEDFVEV | – | – | – | – | – | – | – | – | – | 110 | 92 | 107 | 111 | 124 | 90 | – | –
ILDKLGPWSPIDIHH | 71 | 56 | 54 | 80 | 104 | 46 | – | – | – | – | – | – | – | – | – | – | –
LLESSVIPLVHPLAD | – | 92 | 72 | – | 117 | – | 91 | 93 | 76 | – | – | – | – | – | – | – | –
YTIWMPENPRLGMSC | 93 | 111 | 97 | 191 | 132 | 132 | – | – | – | – | – | – | – | – | – | – | clearly bound
ECLDALESIMTTKSV | – | 103 | 91 | – | 112 | – | 110 | 96 | 90 | – | – | – | – | – | – | – | –
VLIPEMQSSLLQQHM | – | 78 | 92 | – | 104 | – | 92 | 114 | 85 | – | – | – | – | – | – | – | –
